Measured values: patent US9663789B2, “PME-1 as a biomarker to predict and diagnose endometrial and breast cancer and gene silencing of PME-1 to inhibit epithelial to mesenchymal transition” (MEDICAL DIAGNOSTIC LABORATORIES, LLC, priority 2013, dated 2017)

What was measured:
Ishikawa cells [1] = assay: Trans-well migration assay; type: cell-based, human; settings: 24 hr, collagen, 30% FBS bottom chamber
Procedure: We next asked if PME-1 inhibition led to decreased cell migration by completing a trans-well migration assay. Cells were synchronized for 24 hours in media containing 0% FBS. For this experiment, DMSO was again used as the vehicle control and Ishikawa cells were treated with DMSO (control) or 50 nM ABL-127 or 20 μM AMZ-30 for 24 hr and were allowed to migrate through a collagen-coated well towards the bottom chamber, containing media with 30% FBS.
The assay was completed with ECC-1 endometrial carcinoma cell lines following kit instructions Cultrex 96 Well Collagen IV Cell Invasion Assay (cat #3458-096-K). Briefly, cells were serum starved for 24 hours prior to experimentation, then counted and put into the top chamber of a collagen type IV coated Transwell membrane at a concentration of 1×10^6 cells/well in 0% FBS. The bottom chamber contained 30% FBS. Cells were allowed to invade at 37° C. humid chamber incubator for 24 hours. Cells that invaded were analyzed using the kit provided Calcein-AM and fluorescence was read using FluoStar Galaxy.

recombinant PME-1_des3 = recombinant PME-1_des3 (Homo sapiens, UniProt Q9Y570); assay: Thermal melt (thermal shift) assay; type: binding; settings: 50 μM ABL-127; PME-1+DMSO vehicle ˜55° C.
Procedure: There are several commercially available covalent PME-1 inhibitors that we have analyzed as potential endometrial cancer therapeutics. To confirm that the inhibitors directly bind PME-1, we completed a thermal melt assay. One micromole (1 μmole) of recombinant PME-1_des3, of which the last 3 amino acids are deleted, were pre-incubated with SYBR orange in the presence of 50 μM ABL-127 (a potent covalent PME-1 inhibitor, squares) or 0.05% DMSO (vehicle, circles) for 10 minutes (FIG. 25) at 37° C. We then performed a thermal gradient, increasing the temperature by 2° C. each minute from 37° C. to 95° C. and fluorescent signal was detected at 492-601 nm on a thermal cycler. The increase in Tm from ˜55° C. (PME-1+DMSO, circles) to ˜65° C. (PME-1+ABL-127, squares) indicated thermal stabilization of the PME-1 protein via direct binding of the ABL-127 inhibitor (FIG. 25).
The assay was completed by first conducting a 10 min pre-incubation of one μmole of recombinant PME-1des3 with 50 μM ABL127 (Sigma) or vehicle (0.05% DMSO) in the presence of SYBR Orange (1:1,000, v/v, Sigma) at 37° C. in 1×NEB buffer 2 (50 mM NaCl, 10 mM Tris-HCl, 10 mM MgCl2, 1 mM DTT, pH 7.9 at 25° C.), a thermal gradient was performed increasing temperature by 2° C. per minute increments from 37° to 95° C. and fluorescence (492 nm-610 nm) was acquired on a thermal cycler Mx3005P (Stratagene).

Ishikawa cells [2] = assay: Foci formation assay, Ishikawa cells; type: cell-based, human; settings: DMSO set to 100%
Procedure: This study was completed in Ishikawa endometrial cancer cells.
1,000 cells were plated in a six well tissue culture dish in selection media (to include 5 μg/ml puromycin) (InvivoGen). Cells were allowed to adhere and grow in a 5% CO2, 37° C. incubator for 10 to 14 days. […] Cells were stained with 1% crystal violet (Sigma Aldrich) for five minutes and rinsed with PBS. Colonies were counted and data is presented as the percentage of change compared to the control. All Experiments were repeated at least three times.

PME-1 [3] = assay: Quantitative real-time PCR of PME-1 expression after TGF-β treatment; type: cell-based, human; settings: RL95-2 control cells and +PME-1 cells, TGF-β 24 hours
Procedure: In this study, we transfected RL95-2 cells to express empty vector (Control), over-expressing PME-1 (+PME-1) or expressing shRNA against PME-1 (−PME-1 SEQ ID NO: 2) followed by serum starvation for 24 hours. Afterwards, either vehicle or TGF-β treatment was performed at the end of the 24 hours. TGF-β was used to induce cells to initiate the EMT program. Gene expression analysis was conducted using quantitative real-time PCR.
Total RNA was extracted with Qiagen RNAEasy kit from RL95-2 cells. cDNA was synthesized using 500 ng-1 μg of RNA and SuperScript VILO c-DNA mix (Life Technologies). Taqman probes and PCR-mix were purchased from Life Technologies. All samples were run in triplicates. Results are representative of three independent experiments in which genes of interest were normalized to the house-keeping gene, 18S or GAPDH, where fold-change was calculated using the ddCt method.

RL95-2 cells = assay: Colony forming / invasive growth assay in Matrigel; type: cell-based, human; settings: RL95-2, 10 ng/ml TGF-β, 10 days
Procedure: To determine if PME-1 contributes to the more invasive and metastatic phenotypes, we performed a colony forming assay in matrigel.
The 3D On Top Matrigel Assay was completed in 24 well dishes. Briefly, the bottoms of 24 well dishes were coated with 50 μl BD Matrigel Basement Matrix Phenol Red Free (BD Biosciences cat. #356237) and allowed to solidify at 37° C. 10^5 cells were suspended in 250 μl chilled medium containing either 10 ng/ml of TGF-b or vehicle and allowed to settle at 37° C. for 30 minutes. Chilled medium containing 10% of Matrigel was added by pipetting gently down the sidewall of the well and incubated at 37° C. for ten days changing top medium every second day. Colony counts were performed on the tenth day; averages were taken from three fields of view using a 10× objective. Experiment was repeated three times.

PME-1 [4] = assay: Western blot of PME-1 protein in RL95-2 cells; type: cell-based, human; settings: GAPDH loading control
Procedure: We prepared RL95-2 cell lines expressing empty vector (control), over-expressing PME-1 (+PME-1), or expressing shRNA against PPME1, the gene that codes for PME-1 protein (−PME-1). Using these cells, we confirmed the appropriate level of PME-1 via real-time RT-PCR (data not shown) and Western blot analysis (FIG. 8). GAPDH was used as a loading control.
We also prepared two different shRNAs targeted against PME-1.
15 μg of protein was used for western analysis. PME-1 antibody (Santa Cruz) and COXIV (Cell Signaling Technologies) were used for detection of proteins and the blots were developed using chemiluminescence (Pierce ECL Western Blotting Substrate—Thermo Scientific) on the GE ImageQuant LAS 4000. For analysis of Akt, ERK, and β-catenin signaling in tissue culture, western analyses were completed as follows. RL95-2 cells stably infected with lentivirus expressing constructs were selected with puromycin (Invivogen). The cells were incubated with either 50 μM Akt inhibitor (LY 294002, Cell Signaling Technologies) or 40 μM ERK inhibitor (V0126, Cell Signaling Technologies) for 1-2 hours at 37° C. 1.5× Laemelli buffer (0.5 M Tris pH6.8, […], 10% sodium dodecyl sulfate, 100 mM EDTA) was used to prepare cell lysates. 20 μg of protein was used for western analysis. […]

Sequence of recombinant PME-1_des3 (Q9Y570 1-383): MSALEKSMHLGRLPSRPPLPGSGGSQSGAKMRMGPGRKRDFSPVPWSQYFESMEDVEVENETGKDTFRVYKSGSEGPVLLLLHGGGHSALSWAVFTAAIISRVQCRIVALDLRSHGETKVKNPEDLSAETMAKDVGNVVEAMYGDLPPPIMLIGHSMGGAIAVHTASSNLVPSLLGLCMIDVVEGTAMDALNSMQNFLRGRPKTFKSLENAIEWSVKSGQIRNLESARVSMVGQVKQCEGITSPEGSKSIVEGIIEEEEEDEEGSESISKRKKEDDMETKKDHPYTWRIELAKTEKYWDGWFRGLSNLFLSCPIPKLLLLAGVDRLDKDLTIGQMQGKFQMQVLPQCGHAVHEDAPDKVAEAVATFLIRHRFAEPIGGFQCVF

COC(=O)N1C(=O)C(c2ccccc2)(C2CCCC2)N1C(=O)OC (stereo in doubt) [ABL-127, (3R)-Dimethyl 3-cyclopentyl-4-oxo-3-phenyl-1,2-diazetidine-1,2,-dicarboxylate]
percentage of cells capable of migrating (Ishikawa cells [1]; 50 nM): dramatic decrease in the percentage of cells that are capable of migrating
Tm of PME-1 with inhibitor (recombinant PME-1_des3): ~65 °C
decrease in the amount of foci formed (Ishikawa cells [2]; 50 nM every 2-3 days for 10 days): ~50%

N#C/C(=C\c1cccn1S(=O)(=O)c1cccc([N+](=O)[O-])c1)S(=O)(=O)c1ccc(F)cc1 [AMZ-30, (E)-2-(4-Fluorophenylsulfonyl)-3-(1-(3-nitrophenylsulfonyl)-1H-pyrrol-2-yl)-acrylonitrile]
percentage of cells capable of migrating (Ishikawa cells [1]; 20 μM): dramatic decrease in the percentage of cells that are capable of migrating
decrease in the amount of foci formed (Ishikawa cells [2]; 25 μM every 2-3 days for 10 days): ~50%

TGF-β
increase in PME-1 expression (PME-1 [3]): ~2 fold
colony number in Matrigel (RL95-2 cells): overall decrease in colony number

shPPME1 no. 1: shRNA against PPME1, target sequence SEQ ID NO: 1 GTACAGCTATGGATGCACTTA, bp 554-574; full hairpin SEQ ID NO: 7 (CCGGGTACAGCTATGGATGCACTTACTCGAGTAAGTGCATCCATAGCTGTACTTTTT; listed as Homo sapiens)
PME-1 levels by Western blot analysis (PME-1 [4]): significantly decreased PME-1 levels
